Experimental data reported in patent US8940909B2, “Indicator platform” (Biosynth AG, priority 2009, dated 2015).

Key:
Type in all cases: cell-based
Escherichia coli = assay: IN and IO staining of bacterial colonies under anaerobic conditions; details: for C: Color of colonies / D: Diffusion around colonies / G: Growth of colonies / I: Intensity of color / L: Localization on colonies / S: Size of colonies: Nutrient Agar plates, anaerobically incubated with E. coli
Description: Nutrient Agar plates containing 150 mg/l of various substrates and 100 mg/l IPTG were inoculated with Escherichia coli. Plates were put in an anaerobic jar (Anaerojar, Oxoid), an AnaeroGen sachet (Oxoid) was added, the jar was closed and incubated for 24 hours at 37° C.
IN staining cannot be used under anaerobic conditions.

Aeromonas hydrophila 292 = assay: IO staining of colonies of beta-D-galactosidase positive/negative bacteria (Table IVb); details: Aeromonas hydrophila strain 292, b-gal +; 24 h on Nutrient Agar, 150 mg/l indicator, 100 mg/l IPTG; on G: Growth of colonies: key: −: absent; +/−: weak; +: strong; ++: very strong
Citrobacter freundii 181 = assay: as above; details: Citrobacter freundii strain 181, b-gal +; 24 h on Nutrient Agar, 150 mg/l indicator, 100 mg/l IPTG; on C: Color of colonies: key: −: absent; +/−: weak; +: strong; ++: very strong; on G: Growth of colonies: key: −: absent; +/−: weak; +: strong; ++: very strong
[1] = test system: Enterobacter aerogenes 242; assay: as above; details: Enterobacter aerogenes strain 242, b-gal +; 24 h on Nutrient Agar, 150 mg/l indicator, 100 mg/l IPTG; on C: Color of colonies: key: −: absent; +/−: weak; +: strong; ++: very strong; on G: Growth of colonies: key: −: absent; +/−: weak; +: strong; ++: very strong
Enterobacter cloacae 245 = assay: as above; details: Enterobacter cloacae strain 245, b-gal +; 24 h on Nutrient Agar, 150 mg/l indicator, 100 mg/l IPTG; on C: Color of colonies: key: −: absent; +/−: weak; +: strong; ++: very strong; on G: Growth of colonies: key: −: absent; +/−: weak; +: strong; ++: very strong
[2] = test system: Escherichia coli (O157:H7) 60; assay: as above; details: Escherichia coli (O157:H7) strain 60, b-gal +; 24 h on Nutrient Agar, 150 mg/l indicator, 100 mg/l IPTG
Escherichia coli 61 = assay: as above; details: Escherichia coli strain 61, b-gal +; 24 h on Nutrient Agar, 150 mg/l indicator, 100 mg/l IPTG; on C: Color of colonies: key: −: absent; +/−: weak; +: strong; ++: very strong; on G: Growth of colonies: key: −: absent; +/−: weak; +: strong; ++: very strong
Escherichia coli 270 = assay: as above; details: Escherichia coli strain 270, b-gal +; 24 h on Nutrient Agar, 150 mg/l indicator, 100 mg/l IPTG; on C: Color of colonies: key: −: absent; +/−: weak; +: strong; ++: very strong; on G: Growth of colonies: key: −: absent; +/−: weak; +: strong; ++: very strong
[3] = test system: Klebsiella pneumoniae 164; assay: as above; details: Klebsiella pneumoniae strain 164, b-gal +; 24 h on Nutrient Agar, 150 mg/l indicator, 100 mg/l IPTG; on C: Color of colonies: key: −: absent; +/−: weak; +: strong; ++: very strong; on G: Growth of colonies: key: −: absent; +/−: weak; +: strong; ++: very strong
Serratia marcescens 40 = assay: as above; details: Serratia marcescens strain 40, b-gal +; 24 h on Nutrient Agar, 150 mg/l indicator, 100 mg/l IPTG; on G: Growth of colonies: key: −: absent; +/−: weak; +: strong; ++: very strong
[4] = test system: Staphylococcus intermedius 31; assay: as above; details: Staphylococcus intermedius strain 31, b-gal +; 24 h on Nutrient Agar, 150 mg/l indicator, 100 mg/l IPTG
[5] = test system: Staphylococcus saprophyticus 273; assay: as above; details: Staphylococcus saprophyticus strain 273, b-gal +; 24 h on Nutrient Agar, 150 mg/l indicator, 100 mg/l IPTG; on G: Growth of colonies: key: −: absent; +/−: weak; +: strong; ++: very strong
Salmonella bongori 81 = assay: as above; details: Salmonella bongori strain 81, b-gal +; 24 h on Nutrient Agar, 150 mg/l indicator, 100 mg/l IPTG; on C: Color of colonies: key: −: absent; +/−: weak/variable; +: strong; on G: Growth of colonies: key: −: absent; +/−: weak; +: strong; ++: very strong
Salmonella illa 73 = assay: as above; details: Salmonella illa strain 73, b-gal +; 24 h on Nutrient Agar, 150 mg/l indicator, 100 mg/l IPTG; further: key: −: absent; +/−: weak; +: strong; ++: very strong
[6] = test system: Shigella dysenteriae Serovar 1 131; assay: as above; details: Shigella dysenteriae Serovar 1 strain 131, b-gal +/−; 24 h on Nutrient Agar, 150 mg/l indicator, 100 mg/l IPTG
Shigella sonnei 133 = assay: as above; details: Shigella sonnei strain 133, b-gal +/−; 24 h on Nutrient Agar, 150 mg/l indicator, 100 mg/l IPTG; on C: Color of colonies: key: −: absent; +/−: weak; +: strong; ++: very strong; on G: Growth of colonies: key: −: absent; +/−: weak; +: strong; ++: very strong
[7] = test system: Yersinia enterocolitica 175; assay: as above; details: Yersinia enterocolitica strain 175, b-gal +/−; 24 h on Nutrient Agar, 150 mg/l indicator, 100 mg/l IPTG; on G: Growth of colonies: key: −: absent; +/−: weak; +: strong; ++: very strong
[8] = test system: Salmonella enteritidis 43; assay: as above; details: Salmonella enteritidis strain 43, b-gal −; 24 h on Nutrient Agar, 150 mg/l indicator, 100 mg/l IPTG; further: key: −: absent; +/−: weak; +: strong; ++: very strong
Bacillus subtilis 65 = assay: as above; details: Bacillus subtilis strain 65, b-gal −; 24 h on Nutrient Agar, 150 mg/l indicator, 100 mg/l IPTG; on C: Color of colonies: key: −: absent; +/−: weak; +: strong; ++: very strong; on F: Fluorescence of colonies: key: −: absent; +/−: weak; +: strong; ++: very strong
[9] = test system: Listeria monocytogenes (4b) 290; assay: as above; details: Listeria monocytogenes (4b) strain 290, b-gal −; 24 h on Nutrient Agar, 150 mg/l indicator, 100 mg/l IPTG; on C: Color of colonies: key: −: absent; +/−: weak; +: strong; ++: very strong; on F: Fluorescence of colonies: key: −: absent; +/−: weak; +: strong; ++: very strong
[10] = test system: Pseudomonas aeruginosa 168; assay: as above; details: Pseudomonas aeruginosa strain 168, b-gal −, 24 h on Nutrient Agar, 150 mg/l indicator, 100 mg/l IPTG; for F: Fluorescence of colonies: footnote 1: blue autofluorescence; on C: Color of colonies: key: −: absent; +/−: weak; +: strong; ++: very strong; on G: Growth of colonies: key: −: absent; +/−: weak; +: strong; ++: very strong
Shigella boydii 135 = assay: as above; details: Shigella boydii strain 135, b-gal −; 24 h on Nutrient Agar, 150 mg/l indicator, 100 mg/l IPTG; further: key: −: absent; +/−: weak; +: strong; ++: very strong
Staphylococcus aureus 2 = assay: as above; details: Staphylococcus aureus strain 2, b-gal −, 24 h on Nutrient Agar, 150 mg/l indicator, 100 mg/l IPTG; for C: Color of colonies: footnote 2: S. aureus natural color; on F: Fluorescence of colonies: key: −: absent; +/−: weak; +: strong; ++: very strong
[11] = test system: Streptococcus agalactiae 195; assay: as above; details: Streptococcus agalactiae strain 195, b-gal −; 24 h on Nutrient Agar, 150 mg/l indicator, 100 mg/l IPTG; on C: Color of colonies: key: −: absent; +/−: weak; +: strong; ++: very strong; on F: Fluorescence of colonies: key: −: absent; +/−: weak; +: strong; ++: very strong

O=C(c1ccccc1)c1ccccc1-n1cc(O[C@@H]2O[C@H](CO)[C@H](O)[C@H](O)[C@H]2O)c2c(Cl)c(Br)ccc21 [Indicator I22a, 1-(2-Benzoylphenyl)-5-bromo-4-chloro-1H-indol-3-yl-beta-D-galactopyranoside]
+/−: C: Color of colonies (Aeromonas hydrophila 292) | F: Fluorescence of colonies (Aeromonas hydrophila 292) | F: Fluorescence of colonies (Citrobacter freundii 181) | F: Fluorescence of colonies [1] | F: Fluorescence of colonies (Enterobacter cloacae 245) | F: Fluorescence of colonies [2] | F: Fluorescence of colonies (Escherichia coli 61) | F: Fluorescence of colonies (Escherichia coli 270) | F: Fluorescence of colonies [3] | F: Fluorescence of colonies (Serratia marcescens 40) | C: Color of colonies (Salmonella bongori 81) | F: Fluorescence of colonies (Shigella sonnei 133)
+^1: F: Fluorescence of colonies [10]
perfect localization: Localization of stain under anaerobic conditions (Escherichia coli; E. coli, anaerobic, 24 hours at 37° C.)
++: L: Localization on colonies (Escherichia coli)
0.5 mm: S: Size of colonies (Escherichia coli)
+: G: Growth of colonies (Escherichia coli) | I: Intensity of color (Escherichia coli) | G: Growth of colonies (Aeromonas hydrophila 292) | C: Color of colonies (Citrobacter freundii 181) | G: Growth of colonies (Citrobacter freundii 181) | C: Color of colonies [1] | G: Growth of colonies [1] | C: Color of colonies (Enterobacter cloacae 245) | G: Growth of colonies (Enterobacter cloacae 245) | C: Color of colonies [2] | G: Growth of colonies [2] | C: Color of colonies (Escherichia coli 61) | G: Growth of colonies (Escherichia coli 61) | C: Color of colonies (Escherichia coli 270) | G: Growth of colonies (Escherichia coli 270) | C: Color of colonies [3] | G: Growth of colonies [3] | C: Color of colonies (Serratia marcescens 40) | G: Growth of colonies (Serratia marcescens 40) | G: Growth of colonies (Salmonella bongori 81) | G: Growth of colonies (Salmonella illa 73) | G: Growth of colonies [6] | C: Color of colonies (Shigella sonnei 133) | G: Growth of colonies (Shigella sonnei 133) | G: Growth of colonies [7] | G: Growth of colonies [8] | G: Growth of colonies [10] | G: Growth of colonies (Shigella boydii 135)
o-r: C: Color of colonies (Escherichia coli)
−: D: Diffusion around colonies (Escherichia coli) | C: Color of colonies [4] | F: Fluorescence of colonies [4] | G: Growth of colonies [4] | C: Color of colonies [5] | F: Fluorescence of colonies [5] | G: Growth of colonies [5] | F: Fluorescence of colonies (Salmonella bongori 81) | C: Color of colonies (Salmonella illa 73) | F: Fluorescence of colonies (Salmonella illa 73) | C: Color of colonies [6] | F: Fluorescence of colonies [6] | C: Color of colonies [7] | F: Fluorescence of colonies [7] | C: Color of colonies [8] | F: Fluorescence of colonies [8] | C: Color of colonies (Bacillus subtilis 65) | F: Fluorescence of colonies (Bacillus subtilis 65) | G: Growth of colonies (Bacillus subtilis 65) | C: Color of colonies [9] | F: Fluorescence of colonies [9] | G: Growth of colonies [9] | C: Color of colonies [10] | C: Color of colonies (Shigella boydii 135) | F: Fluorescence of colonies (Shigella boydii 135) | F: Fluorescence of colonies (Staphylococcus aureus 2) | G: Growth of colonies (Staphylococcus aureus 2) | C: Color of colonies (Staphylococcus aureus 2) | C: Color of colonies [11] | F: Fluorescence of colonies [11] | G: Growth of colonies [11]

COc1ccc(C(=O)c2ccccc2-n2cc(O[C@@H]3O[C@H](CO)[C@H](O)[C@H](O)[C@H]3O)c3ccc(Cl)cc32)c(OC)c1 [Indicator I27a, 6-Chloro-1-[2-(2,4-dimethoxybenzoyl)phenyl]-1H-indol-3-yl-beta-D-galactopyranoside]
y-o: C: Color of colonies (Escherichia coli)
−: C: Color of colonies [4] | F: Fluorescence of colonies [4] | C: Color of colonies (Salmonella illa 73) | F: Fluorescence of colonies (Salmonella illa 73) | C: Color of colonies [6] | F: Fluorescence of colonies [6] | F: Fluorescence of colonies [7] | C: Color of colonies [8] | F: Fluorescence of colonies [8] | C: Color of colonies (Bacillus subtilis 65) | F: Fluorescence of colonies (Bacillus subtilis 65) | C: Color of colonies [9] | F: Fluorescence of colonies [9] | C: Color of colonies [10] | C: Color of colonies (Shigella boydii 135) | F: Fluorescence of colonies (Shigella boydii 135) | F: Fluorescence of colonies (Staphylococcus aureus 2) | C: Color of colonies (Staphylococcus aureus 2) | C: Color of colonies [11] | F: Fluorescence of colonies [11]
++: C: Color of colonies (Enterobacter cloacae 245) | F: Fluorescence of colonies (Enterobacter cloacae 245) | C: Color of colonies [2] | F: Fluorescence of colonies [2] | C: Color of colonies (Escherichia coli 61) | F: Fluorescence of colonies (Escherichia coli 61) | C: Color of colonies (Escherichia coli 270) | F: Fluorescence of colonies (Escherichia coli 270) | F: Fluorescence of colonies (Shigella sonnei 133)
1 mm: S: Size of colonies (Escherichia coli)
+/−: D: Diffusion around colonies (Escherichia coli) | G: Growth of colonies [4] | C: Color of colonies [5] | F: Fluorescence of colonies [5] | C: Color of colonies (Salmonella bongori 81) | F: Fluorescence of colonies (Salmonella bongori 81) | C: Color of colonies [7] | G: Growth of colonies [9] | G: Growth of colonies (Staphylococcus aureus 2) | G: Growth of colonies [11]
+: G: Growth of colonies (Escherichia coli) | I: Intensity of color (Escherichia coli) | L: Localization on colonies (Escherichia coli) | C: Color of colonies (Aeromonas hydrophila 292) | F: Fluorescence of colonies (Aeromonas hydrophila 292) | G: Growth of colonies (Aeromonas hydrophila 292) | C: Color of colonies (Citrobacter freundii 181) | F: Fluorescence of colonies (Citrobacter freundii 181) | G: Growth of colonies (Citrobacter freundii 181) | C: Color of colonies [1] | F: Fluorescence of colonies [1] | G: Growth of colonies [1] | G: Growth of colonies (Enterobacter cloacae 245) | G: Growth of colonies [2] | G: Growth of colonies (Escherichia coli 61) | G: Growth of colonies (Escherichia coli 270) | C: Color of colonies [3] | F: Fluorescence of colonies [3] | G: Growth of colonies [3] | C: Color of colonies (Serratia marcescens 40) | F: Fluorescence of colonies (Serratia marcescens 40) | G: Growth of colonies (Serratia marcescens 40) | G: Growth of colonies [5] | G: Growth of colonies (Salmonella bongori 81) | G: Growth of colonies (Salmonella illa 73) | G: Growth of colonies [6] | C: Color of colonies (Shigella sonnei 133) | G: Growth of colonies (Shigella sonnei 133) | G: Growth of colonies [7] | G: Growth of colonies [8] | G: Growth of colonies (Bacillus subtilis 65) | G: Growth of colonies [10] | G: Growth of colonies (Shigella boydii 135)
+^1: F: Fluorescence of colonies [10]
